# Biological target: CFTR (Homo sapiens, UniProt P13569)
# Assay: Membrane Potential Dye, Enteroid Assay B
# Type: cell-based
# Settings: for EC50: read-out: Ent. B EC50
# Procedure, shortened: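 Membrane-potential fluorescence read over 15 min after chloride-free stimulation (forskolin 10 μM, IBMX 100 μM, Compound III 300 nM), with CaCCinh-A01 and Chicago Sky Blue present. Enteroids had 18-24 h compound exposure at 37 °C; activity given as % of the triple-combination corrector/potentiator reference response.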
# Chain of CFTR (P13569 with tags, fused parts or gaps DEL508-508): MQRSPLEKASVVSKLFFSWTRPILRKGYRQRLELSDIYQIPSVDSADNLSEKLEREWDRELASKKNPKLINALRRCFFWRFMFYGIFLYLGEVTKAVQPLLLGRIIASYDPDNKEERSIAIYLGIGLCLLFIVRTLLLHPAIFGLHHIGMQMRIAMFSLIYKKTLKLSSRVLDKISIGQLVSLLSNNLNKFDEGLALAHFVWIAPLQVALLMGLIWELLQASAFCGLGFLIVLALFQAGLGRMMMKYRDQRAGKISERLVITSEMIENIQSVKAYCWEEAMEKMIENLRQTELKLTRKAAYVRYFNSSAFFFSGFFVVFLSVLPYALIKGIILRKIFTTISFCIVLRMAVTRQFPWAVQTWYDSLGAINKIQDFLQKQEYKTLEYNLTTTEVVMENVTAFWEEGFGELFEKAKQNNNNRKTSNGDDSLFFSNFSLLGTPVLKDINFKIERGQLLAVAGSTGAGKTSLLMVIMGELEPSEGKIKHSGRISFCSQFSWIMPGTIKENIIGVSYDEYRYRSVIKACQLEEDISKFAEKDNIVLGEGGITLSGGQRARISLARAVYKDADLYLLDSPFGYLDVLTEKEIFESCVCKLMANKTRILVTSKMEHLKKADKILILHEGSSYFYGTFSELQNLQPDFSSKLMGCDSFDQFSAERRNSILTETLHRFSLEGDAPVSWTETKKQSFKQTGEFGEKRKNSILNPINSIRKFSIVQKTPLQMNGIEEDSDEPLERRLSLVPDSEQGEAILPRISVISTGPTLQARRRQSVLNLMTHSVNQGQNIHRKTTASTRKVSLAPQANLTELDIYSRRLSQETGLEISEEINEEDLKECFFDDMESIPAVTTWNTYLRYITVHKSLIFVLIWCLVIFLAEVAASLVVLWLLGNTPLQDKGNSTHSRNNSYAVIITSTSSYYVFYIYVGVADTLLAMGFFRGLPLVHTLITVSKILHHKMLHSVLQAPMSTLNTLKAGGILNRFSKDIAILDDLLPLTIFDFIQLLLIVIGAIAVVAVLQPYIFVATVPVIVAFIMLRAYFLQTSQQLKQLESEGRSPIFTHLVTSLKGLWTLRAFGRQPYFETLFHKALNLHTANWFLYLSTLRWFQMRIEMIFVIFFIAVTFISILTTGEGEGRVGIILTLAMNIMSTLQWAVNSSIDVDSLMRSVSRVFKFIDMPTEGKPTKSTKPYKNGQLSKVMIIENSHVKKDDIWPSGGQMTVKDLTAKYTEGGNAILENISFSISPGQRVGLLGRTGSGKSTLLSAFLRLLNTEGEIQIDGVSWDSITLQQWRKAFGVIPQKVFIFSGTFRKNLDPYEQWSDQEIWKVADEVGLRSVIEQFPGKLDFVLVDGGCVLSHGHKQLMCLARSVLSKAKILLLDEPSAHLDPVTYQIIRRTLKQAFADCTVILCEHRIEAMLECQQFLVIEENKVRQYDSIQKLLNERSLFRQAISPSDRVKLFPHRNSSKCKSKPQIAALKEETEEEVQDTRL
Ent. B Max Activity,EC50 [µM],SMILES
+++ (+++ is >60%),< 1,"Cc1cccc(C)c1-c1nc2nc(c1C)OC[C@@H](CC(C)C)N([C@H]1C[C@@H](OC(C)C)C1)C(=O)c1cccc(c1)S(=O)(=O)N2 (single isomer, unassigned) [Compound 48]"
++ (++ is 30-60%),< 1,Cc1cccc(C)c1-c1nc2nc(c1C1=CCN(C(=O)OC(C)(C)C)CC1)O[C@H](C)CNC(=O)c1cccc(c1)S(=O)(=O)N2 [Compound 149]
+++ (+++ is >60%),< 1,CCc1c2nc(nc1-c1c(C)cccc1C)NS(=O)(=O)c1cccc(c1)C(=O)N(C1CC3(CC3)C1)[C@H](CC(C)(C)C)CO2 [Compound 188]
+++ (+++ is >60%),< 1,COC(=O)NC1CC2(C1)CC(N1C(=O)c3cccc(c3)S(=O)(=O)Nc3nc(c(C)c(-c4c(C)cccc4C)n3)OC[C@H]1CC1(C(F)(F)F)CC1)C2 (stereo in doubt) [Compound 86]
+++ (+++ is >60%),< 1,Cc1cccc(C)c1-c1nc2nc(c1C)OC(c1ccc(CC3(C(F)(F)F)CC3)cn1)CN(C)C(=O)c1cccc(c1)S(=O)(=O)N2 (stereo not shown) [Compound 203]
++ (++ is 30-60%),,Cc1cccc(C)c1-c1nc2nc(c1C1CCOCC1)O[C@H](C)CNC(=O)c1cccc(c1)S(=O)(=O)N2 [Compound 151]
+++ (+++ is >60%),< 1,"[H][C@]1(N2C(=O)c3cccc(c3)S(=O)(=O)Nc3nc(c(C)c(-c4c(C)cccc4C)n3)OC[C@H]2CC(C)(C)C)C[C@@]2(C[C@H](C(C)(C)O)C2)C1 (single isomer, unassigned) [Compound 58]"
+++ (+++ is >60%),< 1,"[H][C@]1(N2C(=O)c3cccc(c3)S(=O)(=O)Nc3nc(c(C)c(-c4c(C)cccc4C)n3)OC[C@H]2CC(C)(C)C)C[C@@]2(C[C@H](C(C)(C)O)C2)C1 (single isomer, unassigned) [Compound 57]"
+++ (+++ is >60%),< 1,"Cc1cccc(C)c1-c1nc2nc(c1C)OC[C@@H](CC(C)C)N([C@H]1C[C@@]3(C[C@H](N(C)C)C3)C1)C(=O)c1cccc(c1)S(=O)(=O)N2 (single isomer, unassigned) [Compound 53]"
+ (+ is <30%),,Cc1cccc(C)c1-c1nc2nc(c1-c1ccncc1)OC[C@@H](C)NC(=O)c1cccc(c1)S(=O)(=O)N2 [Compound 145]
+++ (+++ is >60%),< 1,Cc1cccc(C)c1-c1nc2nc(c1C)OC[C@@H](CC(C)(C)C)N(C1CC3(CCN(C(=O)OC(C)(C)C)CC3)C1)C(=O)c1cccc(c1)S(=O)(=O)N2 [Compound 82]
+++ (+++ is >60%),< 1,"Cc1cccc(C)c1-c1nc2nc(c1C)OC[C@@H](CC(C)(C)C)N(C1CC3(CC(NC(=O)OC(C)C)C3)C1)C(=O)c1cccc(c1)S(=O)(=O)N2 (single isomer, unassigned) [Compound 62]"
++ (++ is 30-60%),3 to 30,Cc1cccc(C)c1-c1nc2nc(c1C1=CCOCC1)OC[C@@H](C)NC(=O)c1cccc(c1)S(=O)(=O)N2 [Compound 140]
+ (+ is <30%),,Cc1cccc(C)c1-c1nc2nc(c1-c1cnn(C)c1)O[C@H](C)CNC(=O)c1cccc(c1)S(=O)(=O)N2 [Compound 128]
+++ (+++ is >60%),< 1,COc1c2nc(nc1-c1c(C)cccc1C)NS(=O)(=O)c1cccc(c1)C(=O)N[C@H](CC(C)C)CO2 [Compound 180]
+++ (+++ is >60%),< 1,Cc1cccc(C)c1-c1nc2nc(c1C)OC[C@@H](CC1(C(F)(F)F)CC1)N(C1CC3(CC(CO)C3)C1)C(=O)c1cccc(c1)S(=O)(=O)N2 (stereo partly shown) [Compound 80]
+++ (+++ is >60%),< 1,COCCN1CCC2(CC1)CC(N1C(=O)c3cccc(c3)S(=O)(=O)Nc3nc(c(F)c(-c4c(C)cccc4C)n3)OC[C@H]1CC(C)C)C2 [Compound 185]
+++ (+++ is >60%),< 1,COc1ccc(-c2c3nc(nc2-c2c(C)cccc2C)NS(=O)(=O)c2cccc(c2)C(=O)N[C@H](C)CO3)cc1 [Compound 144]
++ (++ is 30-60%),< 1,"Cc1cccc(C)c1-c1nc2nc(c1CO)OC[C@@H](CC(C)C)N(C1CC3(CC3)C1)C(=O)c1cccc(c1)S(=O)(=O)N2 [Compound 170, (11R)-6-(2,6-Dimethylphenyl)-7-(hydroxymethyl)-11-isobutyl-2,2-dioxo-12-spiro[2.3]hexan-5-yl-9-oxa-2λ^6-thia-3,5,12,19-tetrazatricyclo[12.3.1.14,8]nonadeca-1(18),4(19),5,7,14,16-hexaen-13-one]"
+ (+ is <30%),,Cc1cccc(C)c1-c1nc2nc(c1-c1cccnc1)O[C@H](C)CNC(=O)c1cccc(c1)S(=O)(=O)N2 [Compound 133]

Ent. B Max Activity,EC50 [µM],SMILES
+++ (+++ is >60%),< 1,Cc1cccc(C)c1-c1nc2nc(c1OC(C)C)OC[C@@H](CC(C)C)N(C1CC3(CC3)C1)C(=O)c1cccc(c1)S(=O)(=O)N2 [Compound 189]
+++ (+++ is >60%),< 1,Cc1cccc(C)c1-c1nc2nc(c1C)OC[C@@H](CC(C)C)N(C1CC3(CCN(C(=O)OC(C)C)CC3)C1)C(=O)c1cccc(c1)S(=O)(=O)N2 [Compound 70]
+ (+ is <30%),3 to 30,Cc1cccc(C)c1-c1nc2nc(c1-c1cnn(C(C)C)c1)OC[C@@H](C)NC(=O)c1cccc(c1)S(=O)(=O)N2 [Compound 139]
+ (+ is <30%),< 1,Cc1cccc(C)c1-c1nc2nc(c1C)OCCCN(C1CC3(CC(NC(=O)OC(C)(C)C)C3)C1)C(=O)c1cccc(c1)S(=O)(=O)N2 (stereo not shown) [Compound 38]
+++ (+++ is >60%),< 1,"Cc1cccc(C)c1-c1nc2nc(c1C)OC[C@@H](CC(C)(C)C)N(C1CC3(CC(N)C3)C1)C(=O)c1cccc(c1)S(=O)(=O)N2 (single isomer, unassigned) [Compound 63]"
+++ (+++ is >60%),< 1,Cc1cccc(C)c1-c1nc2nc(c1C)OC[C@@H](CC1(C(F)(F)F)CC1)N(C1CC3(CC(N)C3)C1)C(=O)c1cccc(c1)S(=O)(=O)N2 (stereo partly shown) [Compound 92]
+++ (+++ is >60%),< 1,Cc1cccc(C)c1-c1nc2nc(c1C)OC[C@@H](CC(C)C)NC(=O)c1cccc(c1)S(=O)(=O)N2 [Compound 73]
+++ (+++ is >60%),< 1,Cc1cccc(C)c1-c1nc2nc(c1C)OC[C@@H](CC1(C(F)(F)F)CC1)N(C1CC3(CC(CO)C3)C1)C(=O)c1cccc(c1)S(=O)(=O)N2 (stereo partly shown) [Compound 81]
+++ (+++ is >60%),1 to 3,Cc1cccc(C)c1-c1nc2nc(c1-c1cnn(CC(C)C)c1)O[C@H](C)CNC(=O)c1cccc(c1)S(=O)(=O)N2 [Compound 127]
+++ (+++ is >60%),< 1,"Cc1cccc(C)c1-c1nc2nc(c1/C=C/C(C)(C)C)O[C@H](C)CNC(=O)c1cccc(c1)S(=O)(=O)N2 [Compound 121, (10R)-7-[(E)-3,3-Dimethylbut-1-enyl]-6-(2,6-dimethylphenyl)-10-methyl-2,2-dioxo-9-oxa-2λ^6-thia-3,5,12,19-tetrazatricyclo[12.3.1.14,8]nonadeca-1(18),4(19),5,7,14,16-hexaen-13-one]"
+++ (+++ is >60%),< 1,Cc1cccc(C)c1-c1nc2nc(c1C)OC[C@@H](CC1(C(F)(F)F)CC1)N(C1CC3(CC(N(C)C)C3)C1)C(=O)c1cccc(c1)S(=O)(=O)N2 (stereo in doubt) [Compound 90]
+++ (+++ is >60%),< 1,"Cc1cccc(C)c1-c1nc2nc(c1-c1ccccc1)O[C@H](C)CNC(=O)c1cccc(c1)S(=O)(=O)N2 [Compound 119, (10R)-6-(2,6-dimethylphenyl)-10-methyl-2,2-dioxo-7-phenyl-9-oxa-2λ^6-thia-3,5,12,19-tetrazatricyclo[12.3.1.14,8]nonadeca-1(18),4(19),5,7,14,16-hexaen-13-one]"
+++ (+++ is >60%),< 1,Cc1cccc(C)c1-c1nc2nc(c1C)OC[C@@H](CC(C)(C)C)N(C1CC3(CCN(C(=O)OC(C)C)CC3)C1)C(=O)c1cccc(c1)S(=O)(=O)N2 [Compound 77]
+++ (+++ is >60%),< 1,Cc1cccc(C)c1-c1nc2nc(c1C)OC[C@@H](CC(C)C)N(C1CC3(CC3)C1)C(=O)c1cccc(c1)S(=O)(=O)N2 [Compound 75]
++ (++ is 30-60%),1 to 3,Cc1cccc(C)c1-c1nc2nc(c1C)O[C@H](C)CNC(=O)c1cccc(c1)S(=O)(=O)N2 [Compound 202]
+++ (+++ is >60%),< 1,COC1CC(N2C(=O)c3cccc(c3)S(=O)(=O)Nc3nc(c(C)c(-c4c(C)cccc4C)n3)OC[C@H]2CC(C)C)C1 (stereo in doubt) [Compound 72]
++ (++ is 30-60%),1 to 3,Cc1cccc(C)c1-c1nc2nc(c1C1CCN(C(=O)OC(C)(C)C)CC1)O[C@H](C)CNC(=O)c1cccc(c1)S(=O)(=O)N2 [Compound 150]
++ (++ is 30-60%),1 to 3,Cc1cccc(C)c1-c1nc2nc(c1C1=CCN(C(=O)OC(C)(C)C)CC1)OC[C@@H](C)NC(=O)c1cccc(c1)S(=O)(=O)N2 [Compound 136]
+++ (+++ is >60%),< 1,COC(=O)N1CCC2(CC1)CC(N1C(=O)c3cccc(c3)S(=O)(=O)Nc3nc(c(C)c(-c4c(C)cccc4C)n3)OC[C@H]1CC(C)(C)C(F)(F)F)C2 [Compound 183]

SMILES,Ent. B Max Activity,EC50 [µM]
"Cc1cccc(C)c1-c1nc2nc(c1C)OC[C@@H](CC(C)C)N([C@H]1C[C@@]3(C[C@H](NC(=O)OC(C)C)C3)C1)C(=O)c1cccc(c1)S(=O)(=O)N2 (single isomer, unassigned) [Compound 51]",+++ (+++ is >60%),< 1

# From patent US20230374038A1, “MODULATORS OF CYSTIC FIBROSIS TRANSMEMBRANE CONDUCTANCE REGULATOR” (VERTEX PHARMACEUTICALS INCORPORATED, priority 2020, published 2023)
